Source: patent US6191161A, “Prolylendopeptidase inhibitors” (Chinoin Gyogyszer es Vegyeszeti, priority 1995, dated 2001)

target: T1, prolyl endopeptidase (PEP), rat brain extract (Rattus norvegicus, UniProt O70196); assay: PEP activity measurement on rat brain extract; format: biochemical, rat (Sprague-Dawley); conditions: Z-glycyl-prolyl-7-amino-4-methyl-coumarin 62.5 μM, room temperature, 15 min
T1 construct: the supernatant, containing the enzyme, was collected; from tissue; host or cells: rat (Sprague-Dawley, male) whole brain without cerebellum, 40000 g supernatant
T1 sequence (O70196 1-710): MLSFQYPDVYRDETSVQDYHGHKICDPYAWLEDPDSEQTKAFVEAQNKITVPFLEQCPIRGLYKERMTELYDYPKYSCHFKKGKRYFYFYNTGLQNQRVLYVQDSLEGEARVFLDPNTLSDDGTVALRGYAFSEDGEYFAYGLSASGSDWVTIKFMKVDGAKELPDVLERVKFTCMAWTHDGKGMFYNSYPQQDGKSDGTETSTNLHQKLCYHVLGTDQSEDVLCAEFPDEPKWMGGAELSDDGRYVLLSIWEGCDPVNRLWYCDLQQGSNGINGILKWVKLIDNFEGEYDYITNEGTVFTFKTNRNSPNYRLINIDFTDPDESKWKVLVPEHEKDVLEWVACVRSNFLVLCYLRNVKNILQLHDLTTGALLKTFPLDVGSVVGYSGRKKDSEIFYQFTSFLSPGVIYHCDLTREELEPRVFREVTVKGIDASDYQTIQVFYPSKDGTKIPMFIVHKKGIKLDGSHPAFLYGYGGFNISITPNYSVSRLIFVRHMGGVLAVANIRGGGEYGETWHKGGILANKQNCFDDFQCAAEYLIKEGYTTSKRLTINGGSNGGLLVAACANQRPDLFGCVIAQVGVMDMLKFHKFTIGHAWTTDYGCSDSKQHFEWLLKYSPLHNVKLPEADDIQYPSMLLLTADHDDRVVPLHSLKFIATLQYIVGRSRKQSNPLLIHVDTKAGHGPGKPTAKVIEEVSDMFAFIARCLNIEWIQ
Experimental: PEP Activity Measurement on Rat Brain Extract:
After removal of the cerebellum whole brain of male (Sprague-Dawley, 180-200 g) rats was homogenized in a double volume of 0.1 M Tris-HCl, 1 mM EDTA buffer, pH=7.5 (PEP buffer). The homogenate was centrifuged for 30 min. at 4° C. at 40000 g and the supernatant, containing the enzyme, was collected. The pellet was resuspended in the same volume of buffer as in the first case and centrifuged again under the same conditions. The two supernatants were pooled and stored in 1 ml aliquots at -70° C. (for at least 3 months). The supernatant was thawn just before activity measurement and diluted in a 1:15 ratio with PEP buffer. […] The inhibitory effect of compounds was tested under the same conditions in the presence of 100 to 0.001 nM compound.

Point of comparison: `Cc1ccc2c(c1)C(=O)N(CCC(=O)N1CSC[C@H]1C(=O)N1CCSC1)C2=O` [Example 31], IC50 0.36 nM. Against it:
- O=C([C@@H]1CSCN1C(=O)CCN1C(=O)c2cccc3cccc(c23)C1=O)N1CCSC1 [Example 123] — within 1.5-fold, 0.278 nM
- O=C([C@@H]1C[S+]([O-])CN1C(=O)CCCN1C(=O)Nc2ccc([N+](=O)[O-])cc2S1(=O)=O)N1CCCC1 (stereo partly drawn) [Example 171] — within 1.5-fold, 0.451 nM
